Experimental data as given in ChEMBL document CHEMBL1140772, “Discovery of indenopyrazoles as EGFR and VEGFR-2 tyrosine kinase inhibitors by in silico high-throughput screening” (Bioorg Med Chem Lett, 2008).
The source made the active and inactive calls. The rule behind the calls is not given here.

Key:
[1] = molecular target: Receptor tyrosine-protein kinase erbB-2 (Homo sapiens) (UniProt P04626); assay: Inhibition of HER2 at 1 uM
A-431 [2] = assay: Growth inhibition of human A431 cells overexpressing EGFR after 72 hrs by MTT assay; assay type: functional; settings: A-431, 72 h
[3] = molecular target: Vascular endothelial growth factor receptor 2 (Homo sapiens, UniProt P35968); assay: Inhibition of KDR
A-431 [4] = assay: Inhibition of human CDK in A431 cells assessed as inhibition of phosphorylation of Rb at 1 uM after 12 hrs; assay type: cell-based

Sequence of Receptor tyrosine-protein kinase erbB-2 (Homo sapiens) (P04626 whole entry): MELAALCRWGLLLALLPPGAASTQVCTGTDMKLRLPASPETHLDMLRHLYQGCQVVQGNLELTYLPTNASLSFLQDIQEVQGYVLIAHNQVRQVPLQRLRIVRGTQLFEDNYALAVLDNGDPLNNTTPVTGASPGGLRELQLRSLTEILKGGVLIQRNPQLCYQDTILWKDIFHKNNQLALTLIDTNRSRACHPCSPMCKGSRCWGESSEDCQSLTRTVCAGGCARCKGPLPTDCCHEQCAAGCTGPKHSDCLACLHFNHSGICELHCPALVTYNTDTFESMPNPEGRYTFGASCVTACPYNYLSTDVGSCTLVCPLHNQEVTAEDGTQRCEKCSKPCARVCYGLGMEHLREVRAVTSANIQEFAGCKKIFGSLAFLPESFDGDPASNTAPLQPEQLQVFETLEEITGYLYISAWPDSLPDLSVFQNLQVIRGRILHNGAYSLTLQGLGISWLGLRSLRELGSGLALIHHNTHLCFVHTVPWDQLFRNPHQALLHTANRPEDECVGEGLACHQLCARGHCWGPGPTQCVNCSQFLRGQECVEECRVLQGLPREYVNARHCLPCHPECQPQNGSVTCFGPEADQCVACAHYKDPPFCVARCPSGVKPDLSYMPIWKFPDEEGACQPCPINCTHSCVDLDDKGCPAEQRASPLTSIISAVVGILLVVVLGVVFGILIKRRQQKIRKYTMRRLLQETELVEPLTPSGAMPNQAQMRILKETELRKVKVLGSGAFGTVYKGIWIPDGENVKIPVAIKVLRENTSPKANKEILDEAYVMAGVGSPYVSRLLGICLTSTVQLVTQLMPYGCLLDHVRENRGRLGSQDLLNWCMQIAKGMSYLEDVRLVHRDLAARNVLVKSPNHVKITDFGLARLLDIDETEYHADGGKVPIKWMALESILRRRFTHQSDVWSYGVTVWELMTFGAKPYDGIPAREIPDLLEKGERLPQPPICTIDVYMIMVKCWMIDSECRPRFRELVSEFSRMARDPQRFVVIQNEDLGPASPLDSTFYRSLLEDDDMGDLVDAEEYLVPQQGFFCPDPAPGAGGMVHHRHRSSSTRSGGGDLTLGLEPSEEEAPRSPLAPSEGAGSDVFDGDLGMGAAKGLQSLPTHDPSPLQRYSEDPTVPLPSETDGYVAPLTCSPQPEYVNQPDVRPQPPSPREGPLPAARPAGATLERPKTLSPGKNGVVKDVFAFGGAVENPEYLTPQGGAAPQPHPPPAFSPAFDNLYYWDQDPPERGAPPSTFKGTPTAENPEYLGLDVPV
Sequence of Vascular endothelial growth factor receptor 2 (P35968 whole entry): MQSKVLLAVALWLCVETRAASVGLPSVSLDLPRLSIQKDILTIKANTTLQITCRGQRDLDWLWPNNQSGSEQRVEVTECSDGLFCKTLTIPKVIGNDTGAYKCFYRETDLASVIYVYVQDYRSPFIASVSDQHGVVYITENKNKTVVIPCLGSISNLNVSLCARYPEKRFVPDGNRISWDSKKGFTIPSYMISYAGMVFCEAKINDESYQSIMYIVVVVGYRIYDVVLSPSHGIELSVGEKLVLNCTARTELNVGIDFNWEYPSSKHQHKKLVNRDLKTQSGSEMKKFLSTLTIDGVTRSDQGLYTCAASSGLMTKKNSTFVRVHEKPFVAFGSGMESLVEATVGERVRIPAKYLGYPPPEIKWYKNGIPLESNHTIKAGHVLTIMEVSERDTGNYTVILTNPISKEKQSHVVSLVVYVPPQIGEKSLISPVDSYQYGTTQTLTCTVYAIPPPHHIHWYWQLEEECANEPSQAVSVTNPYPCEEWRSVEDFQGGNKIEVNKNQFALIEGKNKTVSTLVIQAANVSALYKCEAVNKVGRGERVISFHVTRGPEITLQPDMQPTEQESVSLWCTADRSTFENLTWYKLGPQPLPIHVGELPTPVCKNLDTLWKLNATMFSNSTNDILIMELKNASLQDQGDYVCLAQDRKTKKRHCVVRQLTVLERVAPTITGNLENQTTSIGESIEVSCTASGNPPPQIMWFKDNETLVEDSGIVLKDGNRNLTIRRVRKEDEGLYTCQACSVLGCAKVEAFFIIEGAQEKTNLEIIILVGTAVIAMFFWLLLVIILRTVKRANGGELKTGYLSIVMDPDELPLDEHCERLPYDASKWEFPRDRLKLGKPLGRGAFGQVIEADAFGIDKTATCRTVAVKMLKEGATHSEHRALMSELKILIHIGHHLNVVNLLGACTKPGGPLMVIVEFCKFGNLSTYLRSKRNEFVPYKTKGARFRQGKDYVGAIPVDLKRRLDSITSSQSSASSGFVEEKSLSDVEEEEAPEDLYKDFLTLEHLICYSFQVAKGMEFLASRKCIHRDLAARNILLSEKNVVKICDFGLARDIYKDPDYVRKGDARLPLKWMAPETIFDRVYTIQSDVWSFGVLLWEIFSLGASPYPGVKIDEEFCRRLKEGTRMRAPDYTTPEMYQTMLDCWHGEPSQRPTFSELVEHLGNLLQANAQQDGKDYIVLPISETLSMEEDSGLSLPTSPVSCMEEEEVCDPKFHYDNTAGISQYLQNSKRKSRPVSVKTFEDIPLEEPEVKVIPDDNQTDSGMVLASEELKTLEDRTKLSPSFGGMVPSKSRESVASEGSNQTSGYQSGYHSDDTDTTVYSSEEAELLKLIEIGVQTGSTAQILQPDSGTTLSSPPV

Row | Compound | inhibition [1] | GI50 (A-431 [2]) | IC50 [3] | Activity (A-431 [4])
1 | Nc1ccc(NC(=O)Nc2cccc3c2C(=O)c2c-3n[nH]c2-c2ccc3c(c2)OCO3)cc1 | 28% | 62 nM | 380 nM | Active
2 | O=C(Nc1ccc(O)cc1)Nc1cccc2c1C(=O)c1c-2n[nH]c1-c1ccc2c(c1)OCO2 | 2% | 56 nM | 700 nM | Active
3 | COc1ccc(-c2[nH]nc3c2C(=O)c2c(NC(=O)Nc4ccc(N)cc4)cccc2-3)cc1 | 6% | 1590 nM |  | 

Continued, in another order:

Row | inhibition [1] | GI50 (A-431 [2]) | IC50 [3] | Compound | Activity (A-431 [4])
4 | 7% | > 10000 nM | 650 nM | Nc1ccc(NC(=O)Nc2cccc3c2C(=O)c2c-3n[nH]c2-c2ccc(O)cc2)cc1 | 
5 | 8% | > 10000 nM |  | COc1ccc(-c2[nH]nc3c2C(=O)c2c(NC(=O)Nc4ccc(O)cc4)cccc2-3)cc1 | 
6 | 3% | 4790 nM |  | Nc1ccc(NC(=O)Nc2cccc3c2C(=O)c2c-3n[nH]c2-c2ccc(O)c(O)c2)cc1 | 
